Laboratory results as given in the supplement of paper PMC13380429.

How the values were obtained:
Details in all cases: 72 h
Calu-3 [1] = assay: relative viability EC50 (midpoint between 100% and the lowest measured viability); higher = less toxic
Caco-2 [2] = assay: as above
Vero E6 [3] = assay: as above
HepG2 [4] = assay: as above
U2OS [5] = assay: as above
Calu-3 [6] = assay: cell viability relative to DMSO; higher = less toxic
Caco-2 [7] = assay: as above
Vero E6 [8] = assay: as above
HepG2 [9] = assay: as above
U2OS [10] = assay: as above
Calu-3 [11] = assay: drug sensitivity score (DSS) for viability; higher = more toxic; extreme values may be limits of the assay
Caco-2 [12] = assay: as above
Vero E6 [13] = assay: as above
HepG2 [14] = assay: as above
U2OS [15] = assay: as above

`c1cnc(NCc2ccc(CNc3ncccn3)cc2)nc1` [MSX-122] was tested, and the “relative viability EC50” value (Calu-3 [1]) was over 10 µM, the “relative viability EC50” value (Caco-2 [2]) was over 10 µM and the “relative viability EC50” value (Vero E6 [3]) was over 10 µM. The “relative viability EC50” value (HepG2 [4]) was over 10 µM, the “relative viability EC50” value (U2OS [5]) was over 10 µM and the cell viability (Calu-3 [6]; 1 nM) was 104%. It also gave a cell viability (Calu-3 [6]; 10 nM) of 100%, a cell viability (Calu-3 [6]; 100 nM) of 109% and a cell viability (Calu-3 [6]; 1000 nM) of 99.4%. The cell viability (Calu-3 [6]; 10000 nM) was 113%, the cell viability (Caco-2 [7]; 1 nM) was 92.9% and the cell viability (Caco-2 [7]; 10 nM) was 100%. The cell viability (Caco-2 [7]; 100 nM) was 107%, the cell viability (Caco-2 [7]; 1000 nM) was 112% and the cell viability (Caco-2 [7]; 10000 nM) was 99.2%. For the same compound, the cell viability (Vero E6 [8]; 1 nM) was 101%, the cell viability (Vero E6 [8]; 10 nM) was 98.6% and the cell viability (Vero E6 [8]; 100 nM) was 100%. It also gave a cell viability (Vero E6 [8]; 1000 nM) of 103%, a cell viability (Vero E6 [8]; 10000 nM) of 99.1% and a cell viability (HepG2 [9]; 1 nM) of 90.6%. The cell viability (HepG2 [9]; 10 nM) was 103%, the cell viability (HepG2 [9]; 100 nM) was 102% and the cell viability (HepG2 [9]; 1000 nM) was 92.3%. It also gave a cell viability (HepG2 [9]; 10000 nM) of 101%, a cell viability (U2OS [10]; 1 nM) of 94.7% and a cell viability (U2OS [10]; 10 nM) of 103%. For the same compound, the cell viability (U2OS [10]; 100 nM) was 106%, the cell viability (U2OS [10]; 1000 nM) was 99.4% and the cell viability (U2OS [10]; 10000 nM) was 99.8%. It also gave a drug sensitivity score (Calu-3 [11]) of 0, a drug sensitivity score (Caco-2 [12]) of 0 and a drug sensitivity score (Vero E6 [13]) of 0. It also gave a drug sensitivity score (HepG2 [14]) of 0 and a drug sensitivity score (U2OS [15]) of 0.

In the case of `CC(C)(O)CS(=O)(=O)Nc1ccc2c(c1)CCN(C(=O)COc1cccnc1)C2` [Nampt-IN-1], the “relative viability EC50” value (Calu-3 [1]) is reported as 0.0828 µM, the “relative viability EC50” value (Caco-2 [2]) is reported as 0.193 µM and the “relative viability EC50” value (Vero E6 [3]) is reported as 0.348 µM. The “relative viability EC50” value (HepG2 [4]) was 0.0823 µM, the “relative viability EC50” value (U2OS [5]) was 0.0392 µM and the cell viability (Calu-3 [6]; 1 nM) was 93.2%. The cell viability (Calu-3 [6]; 10 nM) was 88.1%, the cell viability (Calu-3 [6]; 100 nM) was 50.8% and the cell viability (Calu-3 [6]; 1000 nM) was 6.2%. For the same compound, the cell viability (Calu-3 [6]; 10000 nM) was 5.7%, the cell viability (Caco-2 [7]; 1 nM) was 100% and the cell viability (Caco-2 [7]; 10 nM) was 99.8%. The cell viability (Caco-2 [7]; 100 nM) was 84.5%, the cell viability (Caco-2 [7]; 1000 nM) was 4% and the cell viability (Caco-2 [7]; 10000 nM) was 3.7%. For the same compound, the cell viability (Vero E6 [8]; 1 nM) was 105%, the cell viability (Vero E6 [8]; 10 nM) was 103% and the cell viability (Vero E6 [8]; 100 nM) was 104%. It also gave a cell viability (Vero E6 [8]; 1000 nM) of 3.3%, a cell viability (Vero E6 [8]; 10000 nM) of 2.4% and a cell viability (HepG2 [9]; 1 nM) of 98.2%. It also gave a cell viability (HepG2 [9]; 10 nM) of 100%, a cell viability (HepG2 [9]; 100 nM) of 50.2% and a cell viability (HepG2 [9]; 1000 nM) of 20.1%. The cell viability (HepG2 [9]; 10000 nM) was 16.2%, the cell viability (U2OS [10]; 1 nM) was 108% and the cell viability (U2OS [10]; 10 nM) was 104%. For the same compound, the cell viability (U2OS [10]; 100 nM) was 6.2%, the cell viability (U2OS [10]; 1000 nM) was -0.1% and the cell viability (U2OS [10]; 10000 nM) was 0.1%. It also gave a drug sensitivity score (Calu-3 [11]) of 22.9, a drug sensitivity score (Caco-2 [12]) of 20 and a drug sensitivity score (Vero E6 [13]) of 17.1. The drug sensitivity score (HepG2 [14]) was 21.2 and the drug sensitivity score (U2OS [15]) was 29.3.

With `CC(=O)OC[C@H](N)C(=O)O` [O-acetyl-L-serine] the “relative viability EC50” value (Calu-3 [1]) was over 10 µM, the “relative viability EC50” value (Caco-2 [2]) was over 10 µM and the “relative viability EC50” value (Vero E6 [3]) was over 10 µM. The “relative viability EC50” value (HepG2 [4]) was over 10 µM, the “relative viability EC50” value (U2OS [5]) was over 10 µM and the cell viability (Calu-3 [6]; 1 nM) was 111%. The cell viability (Calu-3 [6]; 10 nM) was 97.6%, the cell viability (Calu-3 [6]; 100 nM) was 105% and the cell viability (Calu-3 [6]; 1000 nM) was 92.5%. It also gave a cell viability (Calu-3 [6]; 10000 nM) of 97.1%, a cell viability (Caco-2 [7]; 1 nM) of 104% and a cell viability (Caco-2 [7]; 10 nM) of 109%. The cell viability (Caco-2 [7]; 100 nM) was 90.3%, the cell viability (Caco-2 [7]; 1000 nM) was 106% and the cell viability (Caco-2 [7]; 10000 nM) was 94.9%. For the same compound, the cell viability (Vero E6 [8]; 1 nM) was 114%, the cell viability (Vero E6 [8]; 10 nM) was 89.8% and the cell viability (Vero E6 [8]; 100 nM) was 99.2%. It also gave a cell viability (Vero E6 [8]; 1000 nM) of 103%, a cell viability (Vero E6 [8]; 10000 nM) of 104% and a cell viability (HepG2 [9]; 1 nM) of 115%. It also gave a cell viability (HepG2 [9]; 10 nM) of 103%, a cell viability (HepG2 [9]; 100 nM) of 106% and a cell viability (HepG2 [9]; 1000 nM) of 110%. For the same compound, the cell viability (HepG2 [9]; 10000 nM) was 95.2%, the cell viability (U2OS [10]; 1 nM) was 104% and the cell viability (U2OS [10]; 10 nM) was 104%. It also gave a cell viability (U2OS [10]; 100 nM) of 99.3%, a cell viability (U2OS [10]; 1000 nM) of 105% and a cell viability (U2OS [10]; 10000 nM) of 98.9%. For the same compound, the drug sensitivity score (Calu-3 [11]) was 0, the drug sensitivity score (Caco-2 [12]) was 0 and the drug sensitivity score (Vero E6 [13]) was 0. The drug sensitivity score (HepG2 [14]) was 0 and the drug sensitivity score (U2OS [15]) was 0.
